How the values were obtained:
cyclin D2-Cdk4 [1] = target: T1, cyclin D2-Cdk4 (Homo sapiens, UniProt P11802); experiment: Cdk4 inhibitory action: cyclin D2-Cdk4 kinase activity, 33P-ATP, RB peptide substrate; format: biochemical; conditions: cyclin D2-Cdk4, 50 μM ATP
T1 construct: made in house; host or cells: insect cell Sf9 (baculovirus)
Text: First, the cDNA of Cdk4, and the cDNA of a fusion protein of cyclin D2, an activating factor of Cdk4, and glutathione S-transferase, were integrated into a baculovirus expression vector to prepare a recombinant baculovirus. This was co-transfected into insect cell Sf9 to express an active complex of the cyclin D2/glutathione S-transferase fusion protein-Cdk4 at a high level. The cells were recovered and solubilized, then the active complex was adsorbed onto Glutathione Sepharose, and a cyclin D2-Cdk4 complex was recovered using Precision Protease and was purified by HPLC column chromatography [EMBO J., Vol. 15, 7060-7069 (1996)].
For the measurement of the activity of cyclin D2-Cdk4, a synthetic peptide (Arg-Pro-Pro-Thr-Leu-Ser-Pro-Ile-Pro-His-Ile-Pro-Arg) corresponding to amino acid residue No. 775-787 of RB protein was used as the substrate [EMBO J., Vol. 15, 7060-7069 (1996)].
The reaction was performed by partially modifying the method of Kitagawa et al. [Oncogene, Vol. 7, 1067-1074 (1992)]. The volume of the reaction solution was 21.1 μL, and the composition of the reaction buffer (R buffer) was 20 mM Tris-hydrochloric acid buffer (pH 7.4)/10 mM magnesium chloride/4.5 mM 2-mercaptoethanol/1 mM ethylene glycol bis(β-aminoethyl ether)-N,N,N′,N′-tetraacetic acid (EGTA). To this reaction buffer, purified cyclin D2-Cdk4, 100 μM of the substrate peptide, 50 μM of non-labeled adenosine triphosphate (ATP), and 1 μCi of [γ-33P]-labeled ATP (2000 to 4000 Ci/mmole) were added to react at 30° C. for 45 minutes. Then, 10 μL of 350 mM phosphate buffer was added to the reaction system to terminate the reaction. The substrate peptide was adsorbed onto P81 paper filter on a 96-well plate, and then washed several times with 75 mM phosphate buffer. The radioactivity of the substrate peptide was measured with a liquid scintillation counter. The [γ-33P]-labeled ATP was purchased from Daiichi Pure Chemicals Co., Ltd.
Addition of the test compound to the reaction system was carried out by first preparing a dilution series of solutions of the compound in dimethylsulfoxide (DMSO), and adding 1.1 μL of the dilutions. A control was provided by adding 1.1 μL of DMSO to the reaction system.
A representative compound of the compounds according to the invention was selected, and the IC50 value of this compound for the cyclin D2-Cdk4 activity was determined.

EOL-1 = experiment: Inhibitory action against cell proliferation (WST-8), EOL-1; format: cell-based; conditions: Homo sapiens, EOL1, 72 h, EOL-1 cells, 3 days culture, read-out: concentration for 50% inhibition of cell proliferation (IC50), EOL-1
Protocol: (§1) Clinically isolated cancer cell lines EOL-1, KU812 and JURKAT were cultured in RPMI1640 medium containing 10% fetal calf serum at 37° C. in the presence of 5% CO2 under an atmosphere of saturated steam.
(§2) The inhibitory action against cell proliferation was measured by modifying the method of Skehan et al. [J. Natl. Cancer Inst., Vo. 82, 1107-1112 (1990)] according to the method of Ishiyama et al. [Talanta, Vol. 44, 1299 (1997)]. 100 μL each of cell culture medium containing 1×10^3 live cells of EOL-1, KU812 and JURKAT, respectively, was dispensed into each well of a 96-well cell culture dish, and the cells were cultured overnight. On the next day, a dilution series of solutions in DMSO was prepared from a DMSO solution of the compound of each Example. Then, the dilution series of solutions or DMSO only as a control for no drug addition were separately added to the medium for cell culture. Finally, 100 μL each of the culture medium containing either the dilution series of solutions of the compounds or DMSO only, was added to the cells which had been cultured in a 96-well dish, and then the cells were further cultured for 3 days.
(§3) After adding 20 μL each of WST-8 (Kishida Chemical Co., Ltd.) to each well and culturing the cells for another 2 hours, the optical densities at 450 nm were measured against a reference wavelength of 650 nm, and were compared with the control group. […]

KU812 = experiment: Inhibitory action against cell proliferation (WST-8), KU812; format: cell-based; conditions: Homo sapiens, 72 h, KU812 cells, 3 days culture, read-out: concentration for 50% inhibition of cell proliferation (IC50), KU812
Protocol: as §1, §2, §3

cyclin D2-Cdk4 [2] = target: T1, cyclin D2-Cdk4; experiment: Cdk4 inhibitory action: cyclin D2-Cdk4 kinase activity, 33P-ATP, RB peptide substrate; format: biochemical; conditions: for K1/K4, selectivity for Cdk4 against Cdk1: IC50 of Cdk1 divided by IC50 of Cdk4; for K2/K4, selectivity for Cdk4 against Cdk2: IC50 of Cdk2 divided by IC50 of Cdk4; for K5/K4, selectivity for Cdk4 against Cdk5: IC50 of Cdk5 divided by IC50 of Cdk4; for K7/K4, selectivity for Cdk4 against Cdk7: IC50 of Cdk7 divided by IC50 of Cdk4; for K9/K4, selectivity for Cdk4 against Cdk9: IC50 of Cdk9 divided by IC50 of Cdk4
p35-Cdk5 = target: T2, p35-Cdk5 (Homo sapiens, UniProt Q00535); experiment: Cdk5 inhibitory action: p35-Cdk5 kinase activity; format: biochemical; conditions: p35-Cdk5, 50 μM ATP
T2 construct: purchased PanVera Corp; host or cells: insect cell
Protocol: For the measurement of the activity of p35-Cdk5, a human-derived recombinant […] active complex, which was expressed in insect cell and purified, was purchased from PanVera Corp. A synthetic peptide (Ala-Lys-Ala-Lys-Lys-Thr-Pro-Lys-Lys-Ala-Lys-Lys) was used as the substrate.
The reaction was performed by partially modifying the method of Kitagawa et al. [Oncogene, Vol. 7, 1067-1074 (1992)]. The volume of the reaction solution was 21.1 μL, and to the R buffer, purified cyclin p35-Cdk5, 0.01 mg/mL of the substrate peptide, 50 μM of non-labeled adenosine triphosphate (ATP), and 1 μCi of [γ-33P]-labeled ATP ([…]) were added to react at 30° C. for 10 minutes. Then, 10 μL of 350 mM phosphate buffer was added to the reaction system to terminate the reaction. The substrate peptide was adsorbed onto P81 paper filter on a 96-well plate, and then washed several times with 75 mM phosphate buffer. The radioactivity of the substrate peptide was measured with a liquid scintillation counter.
Addition of the compound according to the invention to the reaction system was carried out by first preparing a dilution series of solutions of the compound in dimethylsulfoxide (DMSO), and adding 1.1 μL of the dilutions. A control was provided by adding 1.1 μL of DMSO to the reaction system.
A representative compound of the compounds according to the invention was selected, and the IC50 value of this compound for the p35-Cdk5 activity was determined.

T1 sequence (P11802 whole entry): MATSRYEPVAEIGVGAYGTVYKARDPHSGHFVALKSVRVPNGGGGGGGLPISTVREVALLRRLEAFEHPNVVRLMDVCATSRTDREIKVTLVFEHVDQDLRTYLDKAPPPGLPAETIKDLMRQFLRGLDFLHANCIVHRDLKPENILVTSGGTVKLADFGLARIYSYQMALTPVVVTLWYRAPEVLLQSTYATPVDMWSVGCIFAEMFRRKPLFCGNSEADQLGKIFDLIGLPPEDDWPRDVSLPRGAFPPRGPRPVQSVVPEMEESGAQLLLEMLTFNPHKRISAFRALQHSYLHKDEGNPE
T1 sequence (P30279 whole entry partner): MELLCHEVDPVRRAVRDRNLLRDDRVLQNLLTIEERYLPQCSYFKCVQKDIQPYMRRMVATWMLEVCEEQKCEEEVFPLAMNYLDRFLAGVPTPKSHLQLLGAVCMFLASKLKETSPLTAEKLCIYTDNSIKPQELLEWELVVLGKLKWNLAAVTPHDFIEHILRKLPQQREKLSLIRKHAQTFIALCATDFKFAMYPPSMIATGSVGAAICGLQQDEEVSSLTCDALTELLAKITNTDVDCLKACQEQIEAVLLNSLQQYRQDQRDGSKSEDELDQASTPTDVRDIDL
T2 sequence (Q00535 whole entry): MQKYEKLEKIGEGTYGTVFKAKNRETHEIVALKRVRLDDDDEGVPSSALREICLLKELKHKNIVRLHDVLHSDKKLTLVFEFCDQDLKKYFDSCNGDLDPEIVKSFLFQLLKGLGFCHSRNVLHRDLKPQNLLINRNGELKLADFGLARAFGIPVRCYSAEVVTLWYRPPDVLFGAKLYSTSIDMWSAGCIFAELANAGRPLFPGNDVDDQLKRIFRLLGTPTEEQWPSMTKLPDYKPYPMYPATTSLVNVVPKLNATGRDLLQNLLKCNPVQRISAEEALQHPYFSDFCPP
T2 sequence (Q15078 whole entry partner): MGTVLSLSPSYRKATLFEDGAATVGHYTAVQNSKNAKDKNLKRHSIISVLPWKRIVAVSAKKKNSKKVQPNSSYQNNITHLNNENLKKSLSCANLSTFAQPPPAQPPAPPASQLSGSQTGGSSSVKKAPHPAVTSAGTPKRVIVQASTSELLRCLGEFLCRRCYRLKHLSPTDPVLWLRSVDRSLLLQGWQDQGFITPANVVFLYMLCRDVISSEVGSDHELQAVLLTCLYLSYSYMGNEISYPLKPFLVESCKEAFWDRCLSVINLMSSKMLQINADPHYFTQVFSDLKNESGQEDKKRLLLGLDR

Cc1cc(-c2cnc(Nc3cnc(CN4CCN(C)CC4)cn3)s2)nc(OC2CCCCC2)n1 [Example 1, 5-[2-(cyclohexyloxy)-6-methyl-4-pyrimidinyl]-2-[5-(4-methyl-1-piperazinyl)methyl-2-pyrazinyl]amino-1,3-thiazole]
IC50 (cyclin D2-Cdk4 [1]): 9.2 nM | IC50 (EOL-1): 54 nM | IC50 (KU812): 150 nM | K1/K4, selectivity for Cdk4 against Cdk1 (cyclin D2-Cdk4 [2]): 65 | K2/K4, selectivity for Cdk4 against Cdk2 (cyclin D2-Cdk4 [2]): 185 | K5/K4, selectivity for Cdk4 against Cdk5 (cyclin D2-Cdk4 [2]): 326 | K7/K4, selectivity for Cdk4 against Cdk7 (cyclin D2-Cdk4 [2]): 58 | K9/K4, selectivity for Cdk4 against Cdk9 (cyclin D2-Cdk4 [2]): 272

Cc1cc(-c2cnc(Nc3cnc(CN4CCC(N(C)C)C4)cn3)s2)nc(OC2CCCCC2)n1 (centres unmarked) [Example 13, 5-[2-(cyclohexyloxy)-6-methyl-4-pyrimidinyl]-2-[5-(3-dimethylamino-1-pyrrolidinyl)methyl-2-pyrazinyl]amino-1,3-thiazole]
IC50 (cyclin D2-Cdk4 [1]): 6 nM | IC50 (p35-Cdk5): 2600 nM | K1/K4, selectivity for Cdk4 against Cdk1 (cyclin D2-Cdk4 [2]): 103 | K2/K4, selectivity for Cdk4 against Cdk2 (cyclin D2-Cdk4 [2]): 142 | K5/K4, selectivity for Cdk4 against Cdk5 (cyclin D2-Cdk4 [2]): 433 | K7/K4, selectivity for Cdk4 against Cdk7 (cyclin D2-Cdk4 [2]): 62 | K9/K4, selectivity for Cdk4 against Cdk9 (cyclin D2-Cdk4 [2]): 72

Cc1cc(-c2cnc(Nc3cnc(CN4CCN(C)CC4)cn3)s2)nc(NC2CCCCC2)n1 [Example 55, 5-[2-(cyclohexylamino)-6-methyl-4-pyrimidinyl]-2-[5-(4-methyl-1-piperazinyl)methyl-2-pyrazinyl]amino-1,3-thiazole]
IC50 (cyclin D2-Cdk4 [1]): 3.8 nM

Cc1cc(-c2cnc(Nc3cnc(CN4CCCC4)cn3)s2)nc(SC2CCCCC2)n1 [Example 93, 5-[2-(cyclohexylthio)-6-methyl-4-pyrimidinyl]-2-[5-(1-pyrrolidinyl)methyl-2-pyrazinyl]amino-1,3-thiazole]
IC50 (cyclin D2-Cdk4 [1]): 4.2 nM | IC50 (p35-Cdk5): 2900 nM

Cc1cc(-c2cnc(Nc3cnc(CN4CCC(N(C)C)C4)cn3)s2)nc(SC2CCCCC2)n1 (centres unmarked) [Example 94, 5-[2-(cyclohexylthio)-6-methyl-4-pyrimidinyl]-2-[5-(3-dimethylamino-1-pyrrolidinyl)methyl-2-pyrazinyl]amino-1,3-thiazole]
IC50 (cyclin D2-Cdk4 [1]): 3.9 nM

Cc1cc(-c2cnc(Nc3cnc(CNC(C)C)cn3)s2)nc(SC2CCCCC2)n1 [Example 96, 5-[2-(cyclohexylthio)-6-methyl-4-pyrimidinyl]-2-[5-(isopropylamino)methyl-2-pyrazinyl]amino-1,3-thiazole]
IC50 (cyclin D2-Cdk4 [1]): 5.8 nM

Cc1cc(-c2cnc(Nc3cnc(CNCCO)cn3)s2)nc(SC2CCCCC2)n1 [Example 99, 5-[2-(cyclohexylthio)-6-methyl-4-pyrimidinyl]-2-[5-(2-hydroxyethylamino)methyl-2-pyrazinyl]amino-1,3-thiazole]
IC50 (cyclin D2-Cdk4 [1]): 6 nM | IC50 (p35-Cdk5): 2400 nM

Cc1cc(-c2cnc(Nc3cnc(CN4CCN(C)CC4)cn3)s2)nc(Sc2ccccc2Cl)n1 [Example 109, 5-[2-(2-chlorophenylthio)-6-methyl-4-pyrimidinyl]-2-[5-(4-methyl-1-piperazinyl)methyl-2-pyrazinyl]amino-1,3-thiazole]
IC50 (cyclin D2-Cdk4 [1]): 5.7 nM

CC(=O)N1CCN(Cc2ccc(Nc3ncc(-c4cc(C)nc(OC5CCCCC5)n4)s3)nc2)CC1 [Example 125, 5-[2-(cyclohexyloxy)-6-methyl-4-pyrimidinyl]-2-[5-(4-acetyl-1-piperazinyl)methyl-2-pyridyl]amino-1,3-thiazole]
IC50 (cyclin D2-Cdk4 [1]): 9 nM | IC50 (EOL-1): 5.6 nM | IC50 (KU812): 180 nM

Cc1cc(-c2cnc(Nc3ccc(CN4CCC[C@H]4CO)cn3)s2)nc(NC2CCCCC2)n1 [Example 137, (2S)-5-[2-(cyclohexylamino)-6-methyl-4-pyrimidinyl]-2-[5-(2-hydroxymethyl-1-pyrrolidinyl)methyl-2-pyridyl]amino-1,3-thiazole]
IC50 (cyclin D2-Cdk4 [1]): 7.2 nM | K1/K4, selectivity for Cdk4 against Cdk1 (cyclin D2-Cdk4 [2]): 167 | K2/K4, selectivity for Cdk4 against Cdk2 (cyclin D2-Cdk4 [2]): 625 | K5/K4, selectivity for Cdk4 against Cdk5 (cyclin D2-Cdk4 [2]): 417 | K7/K4, selectivity for Cdk4 against Cdk7 (cyclin D2-Cdk4 [2]): 167 | K9/K4, selectivity for Cdk4 against Cdk9 (cyclin D2-Cdk4 [2]): 153
